Data published in patent publication US6307080A, “Water-soluble zinc pyruvates or their hydrates, method for the product ion thereof and their use” (SKW Trostberg Aktiengesellschaft, priority 1998, dated 2001).

Legend:
[1] = tested on: influenza A/Chile/1/83 or influenza B/Singapore/27/79 in MDCK cells; assay type: cell-based, influenza A and influenza B viruses; conditions: Table 1; for Plaque (plaque reduction assay): concentration in plaque reduction assay, MDCK cells, 30 min treatment; for Plaque Reduction: percentage reduction in number of plaque per unit volume (well), 30 min
[2] = tested on: influenza A/Chile/1/83 or influenza B/Singapore/27/79 (viral hemagglutination of erythrocytes); assay: Inhibition of influenza-induced viral hemagglutination (vHAI) of erythrocytes (RBC); assay type: cell-based, influenza A and influenza B viruses; conditions: Table 1; for IC50: read-out: HAI IC50
macrophages [3] = assay: Binding/association of zinc pyruvate to macrophages (equilibrium dialysis)
macrophages [4] = assay: Inhibition of superoxide (HO2) release from activated macrophages (cytochrome C reduction); assay type: cell-based; conditions: in words
type II diabetics = conditions: cited from earlier work
Solubility = assay type: physicochemical; conditions: product of Berzelius's instructions, identified as zinc parapyruvate

## zinc pyruvate
[1]
  Plaque (plaque reduction assay): 90.5 µM
  Plaque Reduction: 67%
Erythrocytes (RBC)
  lysis of RBC cells begins at: 1000 µg/mL
[2]
  Potency HAI: 19.9
  IC50: 25.3 µM
Macrophages [3]; macrophages, cell count of 10^5, read-out: binding constant determined by equilibrium dialysis
  binding constant: 150 nM
Macrophages [3]; under these in-vitro conditions
  association constant of zinc pyruvate to the macrophages: 150 nM
Macrophages [4]
  inhibitory effect on the release of HO2 (respiratory burst activity): regulatory and in part inhibitory effect

## [Zn] [zinc]
Type II diabetics; after administration of zinc for 6 weeks, decrease from 250, Perger and coworkers
  average fasting blood sugar: 142 mg %
Type II diabetics; other studies, zinc administration
  fasting and postprandial blood sugar level: decreases markedly

## CC(O)(CC(=O)C(=O)[O-])C(=O)[O-].[Zn+2] (centres unmarked) [zinc parapyruvate]
Solubility
  solubility: sparingly soluble

## O.[O]=[Zn] [ZnO.H2 O]
[1]
  Plaque (plaque reduction assay): 1700 µM
  Plaque Reduction: 15%
[2]
  Potency HAI: 4.5

## CC(=O)[O-].CC(=O)[O-].[Zn+2] [Zn(Ac)2]
[1]
  Plaque (plaque reduction assay): 1700 µM
  Plaque Reduction: 15%
[2]
  Potency HAI: 6.0
  IC50: 150 µM

## [Cl-].[Cl-].[Zn+2] [ZnCl2]
[1]
  Plaque (plaque reduction assay): 1200 µM
  Plaque Reduction: 20%
[2]
  Potency HAI: 5.0
  IC50: 100 µM

## [O]=[Zn] [ZnO.H2 O]
[2]
  IC50: ~200 µM
